# Source: ChEMBL document CHEMBL5625204, “Synthesis and pharmacodynamic evaluation of naphthalene derivatives against influenza A virus in vitro and in vivo” (Eur J Med Chem, 2023)
# Active and inactive are the calls of the source. The calls are words filed in the database; no cut-off is given here.
# How the values were obtained:
# [1] = Cytotoxicity against dog MDCK cells assessed as reduction in cell viability incubated for 72 hrs by MTT assay; type: toxicity, cell-based, Canis lupus familiaris
# Influenza A virus [2] = assay: Antiviral activity against Influenza A virus H1N1 (A/Weiss/43) infected in MDCK cells assessed as reduction of viral replication at 0.625 to 100 uM incubated for 72 hrs by TCID50 method; type: functional, organism-based; details: dose 0.625-100 µM
# Influenza A virus [3] = assay: Antiviral activity against Influenza A virus H1N1 (A/Weiss/43) infected in MDCK cells assessed as reduction of viral replication treated for 72 hrs after viral adsorption by TCID50 method; type: functional, organism-based
# [4] = Selectivity index, ratio of CC50 for dog MDCK cells to EC50 for antiviral activity against Influenza A virus H1N1 (A/Weiss/43) infected in MDCK cells treated for 72 hrs after viral adsorption; type: toxicity, cell-based; details: read-out: Ratio CC50/EC50
# Influenza A virus [5] = assay: Antiviral activity against Influenza A virus H1N1 (A/Weiss/43)-infected in BALB/c mouse assessed as reduction in pulmonary inflammation at 50 mg/kg/day administered intranasally for 6 days starting from 3 hrs post-viral infection by Hematoxylin-Eosin staining based analysis; type: functional, organism-based; details: route nas, time 6.0 day
# Influenza A virus [6] = assay: Antiviral activity against Influenza A virus H1N1 (A/Virginia/ATCC2/2009) infected in MDCK cells assessed as reduction of viral replication incubated for 72 hrs by TCID50 method; type: functional, organism-based
# Influenza A virus [7] = assay: Antiviral activity against Influenza A virus H1N1 (A/Weiss/43)-infected in BALB/c mouse assessed as reduction in lung index at 50 mg/kg/day administered intranasally for 6 days starting from 3 hrs post-viral infection; type: functional; details: 144 h, route nas, time 6 day
# Influenza A virus [8] = assay: Inhibition of Influenza A virus Neuraminidase at 100 to 300 uM pretreated with enzyme for 5 mins followed by fluorogenic substrate addition and measured for 1 hr by fluorescence based analysis; details: dose 100-300 µM, time 65.0 min
# [9] = Selectivity index, ratio of CC50 for dog MDCK cells to EC50 for antiviral activity against Influenza A virus H3N2 (A/California/2004) infected in MDCK cells; type: toxicity, cell-based; details: read-out: Ratio CC50/EC50
# [10] = Selectivity index, ratio of CC50 for dog MDCK cells to EC50 for antiviral activity against Influenza A virus H1N1 (A/Virginia/ATCC2/2009) infected in MDCK cells; type: toxicity, cell-based; details: read-out: Ratio CC50/EC50
# Influenza A virus [11] = assay: Antiviral activity against Influenza A virus H3N2 (A/California/2004) infected in MDCK cells assessed as reduction of viral replication incubated for 72 hrs by TCID50 method; type: functional, organism-based
SMILES,CC50 at 72 h [1] [µM],Activity (Influenza A virus [2]),also measured
C=CCN(c1cccc2ccccc12)S(=O)(=O)c1ccc(C)cc1,620,inactive,–
Cc1ccc(S(=O)(=O)N(Cc2ccccc2)c2cc3ccc(C)cc3c3ccccc23)cc1,> 800,inactive,–
O=S(=O)(c1ccc(Cl)cc1)N(Cc1ccccc1)C1=CCCc2ccccc21,> 800,inactive,–
CCCCN(C1=CCCc2ccccc21)S(=O)(=O)c1ccc(C)cc1,1170,–,EC50 (Influenza A virus [3]): 39.8 µM; selectivity ratio at 72 h [4]: 29.3
O=C1OCCN1c1cc2ccccc2c2ccccc12,212,inactive,–
Cc1ccc(S(=O)(=O)Nc2cc3ccccc3c3cc(C)ccc23)cc1,227,inactive,–
Cc1ccc(S(=O)(=O)N(Cc2ccccc2)c2cc3ccccc3c3ccc(-c4ccccc4)cc23)cc1,> 800,inactive,–
Cc1ccc(S(=O)(=O)N(C)c2cccc3ccccc23)cc1,> 800,inactive,–
Cc1ccc(S(=O)(=O)N(Cc2ccccc2)c2cc3ccccc3c3cc(Cl)ccc23)cc1,2330,inactive,–
O=C1OCCN1c1cccc2ccccc12,> 800,inactive,–
O=S(=O)(c1ccc(Cl)cc1)N(Cc1ccccc1)c1cc2ccccc2c2ccccc12,> 800,–,EC50 (Influenza A virus [3]): 30.1 µM; selectivity ratio at 72 h [4]: > 26.7
CS(=O)(=O)N(Cc1ccccc1)c1cc2ccccc2c2ccccc12,> 800,inactive,–
Cc1ccc(S(=O)(=O)N(Cc2ccccc2)c2cccc3ccccc23)cc1,1370,inactive,–
Cc1ccc(S(=O)(=O)N(Cc2ccccc2)C2=CCOc3ccccc32)cc1,1270,–,EC50 (Influenza A virus [3]): 76.6 µM; selectivity ratio at 72 h [4]: 16.6
COc1ccc(S(=O)(=O)N(Cc2ccccc2)c2cc3ccccc3c3ccccc23)cc1,288,inactive,–
COc1ccc2c(c1)c(NS(=O)(=O)c1ccc(C)cc1)cc1ccccc12,> 800,–,EC50 (Influenza A virus [3]): 69.5 µM; selectivity ratio at 72 h [4]: > 11.5
O=[N+]([O-])c1ccc(S(=O)(=O)N(Cc2ccccc2)c2cc3ccccc3c3ccccc23)cc1,726,inactive,–
C=CCN(c1cc2ccccc2c2ccccc12)S(=O)(=O)c1ccc(C)cc1,61.2,inactive,–
Cc1ccc(S(=O)(=O)N(c2ccccc2)c2cccc3ccccc23)cc1,1160,inactive,–
COC(=O)c1ccc2c(c1)c(N(Cc1ccccc1)S(=O)(=O)c1ccc(C)cc1)cc1ccccc12,3670,inactive,–
Cc1ccc(S(=O)(=O)N(Cc2ccccc2)c2cc3ccccc3c3ccc4ccccc4c23)cc1,> 800,inactive,–
CCCCN(c1cccc2ccccc12)S(=O)(=O)c1ccc(C)cc1,311,inactive,–

SMILES,CC50 at 72 h [1] [µM],Activity (Influenza A virus [2]),also measured
CC(=O)c1ccc2c(c1)c(N(Cc1ccccc1)S(=O)(=O)c1ccc(C)cc1)cc1ccccc12,382,inactive,–
O=[N+]([O-])c1ccc(S(=O)(=O)N(Cc2ccccc2)C2=CCCc3ccccc32)cc1,> 800,inactive,–
Cc1ccc(S(=O)(=O)N(Cc2ccccc2)c2cc3ccccc3c3ccc(C)cc23)cc1,> 800,–,EC50 (Influenza A virus [3]): 36.4 µM; selectivity ratio at 72 h [4]: > 22
O=S(=O)(c1ccc(Cl)cc1)N(Cc1ccccc1)c1cccc2ccccc12,> 800,inactive,–
Cc1ccc(S(=O)(=O)N(Cc2ccccc2)c2cc3ccccc3c3ccc(F)cc23)cc1,1040,inactive,–
COc1ccc(S(=O)(=O)N(Cc2ccccc2)c2cccc3ccccc23)cc1,> 800,inactive,–
Cc1ccc(S(=O)(=O)N(C)c2cc3ccccc3c3ccccc23)cc1,3120,inactive,–
Cc1ccc(S(=O)(=O)N(C2=CCCc3ccccc32)c2ccccc2)cc1,1210,inactive,–
Cc1ccc(S(=O)(=O)N(Cc2ccccc2)c2cc3ccccc3c3ccccc23)cc1,> 800,inactive,–
O=C1OCCN1C1=CCCc2ccccc21,301,inactive,–
Cc1ccc(S(=O)(=O)N(Cc2ccccc2)C2=CCCc3ccccc32)cc1,1170,inactive,–
CS(=O)(=O)N(C1=CCCc2ccccc21)c1ccccc1,345,–,EC50 (Influenza A virus [3]): 50.8 µM; selectivity ratio at 72 h [4]: 6.78
CCOC(=O)C1=C[C@@H](OC(CC)CC)[C@H](NC(C)=O)[C@@H](N)C1 [OSELTAMIVIR],> 800,–,Activity (Influenza A virus [5]): Active; EC50 (Influenza A virus [6]): 1.71 µM; EC50 (Influenza A virus [3]): 1.7 µM; inhibition in vivo at 50 mg/kg/day (Influenza A virus [7]): 33.1%; inhibition (Influenza A virus [8]): Active; selectivity ratio [9]: > 136; selectivity ratio at 72 h [4]: > 471; selectivity ratio [10]: > 468; EC50 (Influenza A virus [11]): 5.9 µM
Cc1ccc(S(=O)(=O)Nc2cc3ccccc3c3ccc(-c4ccccc4)cc23)cc1,> 800,inactive,–
Cc1ccc(S(=O)(=O)N(c2ccccc2)c2cc3ccccc3c3ccccc23)cc1,> 800,inactive,–
Cc1ccc(S(=O)(=O)N(Cc2ccccc2)c2cc3ccccc3c3ccc4ccsc4c23)cc1,1420,inactive,–
CS(=O)(=O)Nc1cc2ccccc2c2ccccc12,73.4,inactive,–
COc1ccc(S(=O)(=O)N(Cc2ccccc2)C2=CCCc3ccccc32)cc1,> 800,inactive,–
Cc1ccc(S(=O)(=O)N(Cc2ccccc2)c2cc3ccccc3c3cc(C)ccc23)cc1,> 800,inactive,–
Cc1ccc(S(=O)(=O)N(Cc2ccccc2)c2cc3ccccc3c3ccc(Cl)cc23)cc1,> 800,inactive,–
C=CCN(C1=CCCc2ccccc21)S(=O)(=O)c1ccc(C)cc1,127,inactive,–
COc1ccc2c(c1)c(N(Cc1ccccc1)S(=O)(=O)c1ccc(C)cc1)cc1ccccc12,> 800,–,EC50 (Influenza A virus [3]): 21.8 µM; selectivity ratio at 72 h [4]: > 36.8
